Measurements taken from PubChem BioAssay AID330 (DTP/NCI, 2004).
Where “and” joins values, the source holds several entries; their conditions need not be identical. Equal entries are not always repeated. Inconclusive results and toxic doses are left out. How the source made its calls: active means survival T/C of 150% or more; inactive means T/C below 125% in these data.

Test system: P388 leukemia ip, CD2F1 mice, survival T/C
Assay: NCI In Vivo Anticancer Drug Screen. Data for tumor model P388 Leukemia (intraperitoneal) in CD2F1 (CDF1) mice
Conditions: endpoint: median survival time, higher = longer survival
Procedure, shortened: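 Mice carrying the transplanted tumor received test compound or vehicle. Survival was recorded in each group, and the value is the treated-group measurement divided by that of the vehicle-treated control group.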

[1] = dose: 50.0 mg/kg/injection, schedule: Q01DX005 (ip), vehicle: saline with Tween-80
[2] = dose: 100.0 mg/kg/injection, schedule: Q01DX005 (ip), vehicle: saline with Tween-80
[3] = dose: 50.0 mg/kg/injection, schedule: Q01DX005 (ip), vehicle: Klucel (hydroxypropylcellulose) (HPC)
[4] = dose: 100.0 mg/kg/injection, schedule: Q01DX005 (ip), vehicle: Klucel (hydroxypropylcellulose) (HPC)
[5] = dose: 200.0 mg/kg/injection, schedule: Q01DX005 (ip), vehicle: Klucel (hydroxypropylcellulose) (HPC)

Measured: T/C

N#CC1Sc2ccccc2N1C(=O)c1ccccc1 (stereo unspecified)
inactive: [1] 103 % of control | [2] 100 % of control | dose: 200.0 mg/kg/injection, schedule: Q01DX005 (ip), vehicle: saline with Tween-80 98 % of control

C=C(Cl)C(=NC(C)(C)C)Nc1ccc(C(=O)OCC)cc1
inactive: [3] 103 % of control | [4] 100 % of control | [5] 118 % of control

CNC(=O)OCC1=C(COC(=O)NC)C(=O)c2ccccc2C1=O
inactive: dose: 6.25 mg/kg/injection, schedule: Q01DX005 (ip), vehicle: Klucel (hydroxypropylcellulose) (HPC) 96 % of control | dose: 12.5 mg/kg/injection, schedule: Q01DX005 (ip), vehicle: Klucel (hydroxypropylcellulose) (HPC) 105 % of control | dose: 25.0 mg/kg/injection, schedule: Q01DX005 (ip), vehicle: Klucel (hydroxypropylcellulose) (HPC) 112 % of control

CC(C)NC1CCC(Nc2ccnc3cc(Cl)ccc23)CC1 (stereo unspecified)
inactive: [3] 98 % of control | [4] 97 % of control

Nc1nc2c(ncn2[C@@H](CO)OC(CO)CO)c(=O)[nH]1
inactive: [3] 99 % of control | [4] 98 % of control | [5] 98 % of control

COC(=O)/N=C1\C(=O)C=CC(O)=C1C(N)=O
inactive: dose: 6.25 mg/kg/injection, schedule: Q01DX005 (ip), vehicle: saline with Tween-80 90 % of control | dose: 12.5 mg/kg/injection, schedule: Q01DX005 (ip), vehicle: saline with Tween-80 94 % of control | dose: 25.0 mg/kg/injection, schedule: Q01DX005 (ip), vehicle: saline with Tween-80 92 % of control

C=C1C2CCC3C4(C)CC(OC5OC(CO)C(OS(=O)(=O)O)C(OS(=O)(=O)O)C5OC(=O)CC(C)C)CC(C(=O)O)(C(=O)O)C4CCC3(C2)C1O (stereo unspecified)
inactive: dose: 1.25 mg/kg/injection, schedule: Q01DX009 (ip), vehicle: saline 117 % of control | dose: 2.5 mg/kg/injection, schedule: Q01DX009 (ip), vehicle: saline 117 % of control | dose: 5.0 mg/kg/injection, schedule: Q01DX009 (ip), vehicle: saline 114 % of control

c1cc2n(n1)CCN2
inactive: dose: 12.5 mg/kg/injection, schedule: Q01DX009 (ip), vehicle: saline 104 % of control | dose: 25.0 mg/kg/injection, schedule: Q01DX009 (ip), vehicle: saline 109 % of control | dose: 50.0 mg/kg/injection, schedule: Q01DX009 (ip), vehicle: saline 100 % of control and 104 % of control | dose: 80.0 mg/kg/injection, schedule: Q01DX009 (ip), vehicle: saline 111 % of control | dose: 100.0 mg/kg/injection, schedule: Q01DX009 (ip), vehicle: saline 111 % of control and 120 % of control | dose: 120.0 mg/kg/injection, schedule: Q01DX009 (ip), vehicle: saline 113 % of control | dose: 200.0 mg/kg/injection, schedule: Q01DX009 (ip), vehicle: saline 100 % of control | dose: 225.0 mg/kg/injection, schedule: Q03DX003 (ip), vehicle: saline 111 % of control | dose: 264.0 mg/kg/injection, schedule: Q04DX003 (ip), vehicle: saline 100 % of control | dose: 300.0 mg/kg/injection, schedule: Q03DX003 (ip), vehicle: saline 111 % of control | dose: 375.0 mg/kg/injection, schedule: Q03DX003 (ip), vehicle: saline 124 % of control | dose: 400.0 mg/kg/injection, schedule: Q04DX003 (ip), vehicle: saline 118 % of control

COC1=C(NC(C)=O)C(=O)c2nc(-c3nc(C(=O)O)c(C)c(-c4ccc(OC)c(OC)c4O)c3N)ccc2C1=O
inactive: dose: 12.5 mg/kg/injection, schedule: Q01DX009 (ip), vehicle: distilled water + Tween-80 119 % of control | dose: 25.0 mg/kg/injection, schedule: Q01DX009 (ip), vehicle: distilled water + Tween-80 118 % of control | dose: 50.0 mg/kg/injection, schedule: Q01DX009 (ip), vehicle: distilled water + Tween-80 119 % of control | dose: 100.0 mg/kg/injection, schedule: Q01DX009 (ip), vehicle: distilled water + Tween-80 119 % of control

COC(=O)C(NC(=O)C(CO)N1C(=O)c2ccccc2C1=O)c1ccccc1 (stereo unspecified)
inactive: [1] 99 % of control | [2] 98 % of control

O=C(c1ccc([N+](=O)[O-])cc1)c1cc2ccccc2oc1=O
inactive: dose: 60.0 mg/kg/injection, schedule: Q01DX005 (ip), vehicle: saline with Tween-80 91 % of control | dose: 120.0 mg/kg/injection, schedule: Q01DX005 (ip), vehicle: saline with Tween-80 94 % of control | dose: 240.0 mg/kg/injection, schedule: Q01DX005 (ip), vehicle: saline with Tween-80 90 % of control
